# From PubChem BioAssay AID1259407 (Chemical Carcinogenesis Research Information System (CCRIS), 2018)
# The source made the active and inactive calls. No rule for the calls is given here.
# Tested on: CCRIS mutagenicity, Ames/micronucleus/aberration tests
# Test: CCRIS mutagenicity studies
# Conditions: Test System: AMES SALMONELLA TYPHIMURIUM
compound,measurement,setting,value
Nc1ccc(-c2ccccc2)cc1,mutagenic call,"Strain/Indicator: DJ400, Metabolic Activation: TOBACCO TX1 CELLS, Method: PREINCUBATION",inactive; negative
same,mutagenic call,"Strain/Indicator: DJ460, Metabolic Activation: TOBACCO TX1 CELLS, Method: PREINCUBATION",active; positive
same,mutagenic call,"Strain/Indicator: MP110, Metabolic Activation: TOBACCO TX1 CELLS, Method: PREINCUBATION",inactive; negative
same,mutagenic call,"Strain/Indicator: MP120, Metabolic Activation: TOBACCO TX1 CELLS, Method: PREINCUBATION",inactive; negative
same,mutagenic call,"Strain/Indicator: MP208, Metabolic Activation: TOBACCO CELL-FREE TXIMX, Method: PREINCUBATION",active; positive
same,mutagenic call,"Strain/Indicator: MP219, Metabolic Activation: TOBACCO CELL-FREE TXIMX, Method: PREINCUBATION",active; positive
same,mutagenic call,"Strain/Indicator: TA97, Metabolic Activation: NONE, Method: STANDARD PLATE",inactive; negative
same,mutagenic call,"Strain/Indicator: TA97, Metabolic Activation: RAT, LIVER, S-9, AROCLOR 1254, Method: STANDARD PLATE",active; positive
same,mutagenic call,"Strain/Indicator: TA98(1,8-DNP6), Metabolic Activation: PLANT CELLS, Method: PREINCUBATION",active; positive
same,mutagenic call,"Strain/Indicator: TA98(1,8-DNP6), Metabolic Activation: TOBACCO CELL-FREE TXIMX, Method: PREINCUBATION",inactive; negative
same,mutagenic call,"Strain/Indicator: TA98(NR), Metabolic Activation: TOBACCO CELL-FREE TXIMX, Method: PREINCUBATION",active; positive
same,mutagenic call,"Strain/Indicator: TA98, Metabolic Activation: HUMAN, RED BLOOD CELL, CYTOSOL, Method: PREINCUBATION",active; positive
same,mutagenic call,"Strain/Indicator: TA98, Metabolic Activation: HUMAN, UROEPITHELIAL CELL CYTOSOL, Method: PREINCUBATION",inactive; negative
same,mutagenic call,"Strain/Indicator: TA98, Metabolic Activation: HUMAN, UROEPITHELIAL CELL, MICROSOMES, Method: PREINCUBATION",inactive; negative
same,mutagenic call,"Strain/Indicator: TA98, Metabolic Activation: HUMAN, UROEPITHELIAL CELL, S-9, Method: PREINCUBATION",inactive; negative
same,mutagenic call,"Strain/Indicator: TA98, Metabolic Activation: NONE, Method: PREINCUBATION",inactive; negative
same,mutagenic call,"Strain/Indicator: TA98, Metabolic Activation: PLANT CELLS, Method: PREINCUBATION",active; positive
same,mutagenic call,"Strain/Indicator: TA98, Metabolic Activation: RAT LIVER S-9, AROCLOR 1254, Method: PREINCUBATION",active; positive
same,mutagenic call,"Strain/Indicator: TA98, Metabolic Activation: RAT LIVER S-9, AROCLOR, Method: STANDARD PLATE",active; positive
same,mutagenic call,"Strain/Indicator: TA98, Metabolic Activation: RAT, BLADDER, S-9, PCB, Method: FLUCTUATION TEST",active; positive
same,mutagenic call,"Strain/Indicator: TA98, Metabolic Activation: RAT, LIVER, S-9, AROCLOR 1254 (4%), Method: STANDARD PLATE",active; positive
same,mutagenic call,"Strain/Indicator: TA98, Metabolic Activation: RAT, LIVER, S-9, KC500 OR PHENOBARBITAL, Method: LIQUID SUSPENSION",active; positive
same,mutagenic call,"Strain/Indicator: TA98, Metabolic Activation: TOBACCO CELL-FREE TXIMX, Method: PREINCUBATION",active; positive
same,mutagenic call,"Strain/Indicator: TA100 (1,8-DNP), Metabolic Activation: MOUSE LIVER S-9, AROCLOR 1254, 10%, Method: PREINCUBATION",active; positive
same,mutagenic call,"Strain/Indicator: TA100 (1,8-DNP), Metabolic Activation: RAT LIVER S-9, AROCLOR 1254, 10%, Method: PREINCUBATION",active; positive
same,mutagenic call,"Strain/Indicator: TA100(NR), Metabolic Activation: TOBACCO CELL-FREE TXIMX, Method: PREINCUBATION",active; positive
same,mutagenic call,"Strain/Indicator: TA100(TN:OAT), Metabolic Activation: TOBACCO CELL-FREE TXIMX, Method: PREINCUBATION",active; positive
same,mutagenic call,"Strain/Indicator: TA100, Metabolic Activation: MOUSE LIVER S-9, AROCLOR 1254, 10%, Method: PREINCUBATION",active; positive
same,mutagenic call,"Strain/Indicator: TA100, Metabolic Activation: NONE, Method: PREINCUBATION",inactive; negative
same,mutagenic call,"Strain/Indicator: TA100, Metabolic Activation: RAT LIVER S-9, AROCLOR 1254, 10%, Method: PREINCUBATION",active; positive
same,mutagenic call,"Strain/Indicator: TA100, Metabolic Activation: RAT LIVER S-9, AROCLOR 1254, Method: PREINCUBATION",active; positive
same,mutagenic call,"Strain/Indicator: TA100, Metabolic Activation: RAT LIVER S-9, AROCLOR, Method: STANDARD PLATE",active; positive
same,mutagenic call,"Strain/Indicator: TA100, Metabolic Activation: RAT, BLADDER, S-9, PCB, Method: FLUCTUATION TEST",inactive; negative
same,mutagenic call,"Strain/Indicator: TA100, Metabolic Activation: RAT, LIVER, S-9, KC500 OR PHENOBARBITAL, Method: LIQUID SUSPENSION",active; positive
